Activity calls are given as the source filed them. The rule behind the calls is not given here.
Tests used:
[1] = Chemical stability assessed as disulfide cleavage after 3 hrs by ESI-MS in presence of L-glutathione; type: physicochemical
A549 [2] = conditions: Homo sapiens, at 0.5 µM
Description: Inhibition of microtubule in human A549 cells assessed as network disappearane at 0.5 uM after 1 hr by immunofluorescence analysis

A549 [3] = conditions: Homo sapiens, at 0.5 µM; remark: listed apart in the source
Description: Inhibition of microtubule in human A549 cells assessed as roundish cells at 0.5 uM after 24 hrs by immunofluorescence analysis

A549 [4] = test: Inhibition of microtubule in human A549 cells assessed as roundish cells at 0.5 uM after 1 hr by immunofluorescence analysis; type: cell-based
A549 [5] = test: Inhibition of microtubule in human A549 cells assessed as microtubule organization at 0.5 uM after 1 hr by immunofluorescence analysis; type: cell-based

| Compound | Stability [1] | inhibition (A549 [2]) | inhibition (A549 [3]) | inhibition (A549 [4]) [%] | inhibition (A549 [5]) |
| --- | --- | --- | --- | --- | --- |
| COc1cc2c(c(OC)c1OC)-c1ccc(SC)c(=O)cc1[C@@H](NC(=O)CSSCC(=O)N[C@H]1CCc3cc(OC)c(OC)c(OC)c3-c3ccc(SC)c(=O)cc31)CC2 | Unstable | Active | Active | – | – |
| COc1cc([C@@H]2c3cc4c(cc3[C@H](OC(=O)CSSCC(=O)O[C@H]3c5cc6c(cc5[C@@H](c5cc(OC)c(OC)c(OC)c5)[C@H]5C(=O)OC[C@@H]53)OCO6)[C@H]3COC(=O)[C@H]23)OCO4)cc(OC)c1OC | – | – | Active | 50 | – |
| COc1cc2c(c(OC)c1OC)-c1ccc(SC)c(=O)cc1[C@@H](NC(=O)C(N)CCCCC(N)C(=O)N[C@H]1CCc3cc(OC)c(OC)c(OC)c3-c3ccc(SC)c(=O)cc31)CC2 (stereo partly specified) | – | – | Active | – | inactive |
| COc1cc([C@@H]2c3cc4c(cc3[C@H](OC(=O)CCCSSCCCC(=O)N[C@H]3CCc5cc(OC)c(OC)c(OC)c5-c5ccc(SC)c(=O)cc53)[C@H]3COC(=O)[C@H]23)OCO4)cc(OC)c1OC | – | Active | Active | – | – |
| COc1cc([C@@H]2c3cc4c(cc3[C@H](OC(=O)C(N)CSSCC(N)C(=O)O[C@H]3c5cc6c(cc5[C@@H](c5cc(OC)c(OC)c(OC)c5)[C@H]5C(=O)OC[C@@H]53)OCO6)[C@H]3COC(=O)[C@H]23)OCO4)cc(OC)c1OC (stereo partly specified) | – | Active | Active | – | – |
| COc1cc2c(c(OC)c1OC)-c1ccc(SC)c(=O)cc1[C@@H](NC(=O)CCSSCCC(=O)N[C@H]1CCc3cc(OC)c(OC)c(OC)c3-c3ccc(SC)c(=O)cc31)CC2 | – | Active | Active | – | – |
| COc1cc([C@@H]2c3cc4c(cc3[C@H](OC(=O)CCCCC(=O)O[C@H]3c5cc6c(cc5[C@@H](c5cc(OC)c(OC)c(OC)c5)[C@H]5C(=O)OC[C@@H]53)OCO6)[C@H]3COC(=O)[C@H]23)OCO4)cc(OC)c1OC | – | – | Active | – | inactive |
| COc1cc2c(c(OC)c1OC)-c1ccc(SC)c(=O)cc1[C@@H](NC(=O)CCCCC(=O)N[C@H]1CCc3cc(OC)c(OC)c(OC)c3-c3ccc(SC)c(=O)cc31)CC2 | – | – | Active | 50 | – |
| COc1cc2c(c(OC)c1OC)-c1ccc(SC)c(=O)cc1[C@@H](NC(=O)C(N)CSSCC(N)C(=O)N[C@H]1CCc3cc(OC)c(OC)c(OC)c3-c3ccc(SC)c(=O)cc31)CC2 (stereo partly specified) | – | – | Active | 50 | – |
| COc1cc([C@@H]2c3cc4c(cc3[C@H](O)[C@H]3COC(=O)[C@H]23)OCO4)cc(OC)c1OC | – | Active | Active | – | – |

Source: ChEMBL document CHEMBL1156141, “Synthesis and biological evaluation of novel thiocolchicine-podophyllotoxin conjugates” (Eur J Med Chem, 2010)
